Assays:
[1] = tested on: central nervous system; experiment: Locomotory activity of mice (registered with instrument "Animex"); assay type: in vivo, white male mice; conditions: for ED200: Mus musculus, dose causing two-fold potentiation of locomotory activity, read-out: ED200 (locomotion)
Method: (§1) Psychostimulating activity of the compounds according to the present invention has been tested in experiments with mice and rats.
(§2) The experiments are performed with white male mice with a weight of 18-20 g and with white rat males with a weight of 120 to 140 g with the account of parameters characterising the influence of the compounds according to the present invention on the central nervous system as well as toxicity. Following this objective, there have been studied:
(1) effect of the compounds on the locomotory activity of the animals (locomotory activity is registered using the instrument "Animex");
(§3) To quantitatively evaluate the central stimulant activity of the compounds in the tests on mice the values of ED200 (locomotion) are determined, i.e. doses in which the compounds cause a two-fold potentiation of locomotory activity of the animals; in the tests performed with rats there are determined values of ED50 (stereotypy), i.e. doses in which the compounds, one hour after their administration, cause, in 50% of the test rats, stereotypic behavior reactions (ED50 doses are calculated by the Litchfield and Wilkoxsons method).
(§4) The compounds according to the present invention are sparingly soluble in water. They were administered to the animals in the form of a suspension prepared with the use of a 1% solution of carboxymethylcellulose with the addition of Tween-80® as an emulsifying agent. Since molecular weights of the test compounds differ from each other, their doses are calculated in mcM/kg.
(§5) In a special series of experiments there has been made a quantitative comparison of the central stimulant effect of the compounds according to the present invention as determined by tests of locomotory activity with mice and stereotypy with rats.

[2] = tested on: central nervous system; experiment: Stereotypic behavior reactions in rats; assay type: in vivo, white rat males; conditions: Rattus norvegicus, 1 h, dose causing stereotypic behavior reactions in 50% of rats one hour after administration, Litchfield and Wilkoxson method, read-out: ED50 (stereotypy)
Method: as §1, §2
(2) capability of the compounds of inducing sterotypic behavior reactions;
as §3, §4, §5

[3] = tested on: central nervous system; conditions: prior art compound; cited from earlier work
[4] = tested on: mice; conditions: statement on known psychostimulant compounds; cited from earlier work
[5] = Solubility; assay type: physicochemical

| Compound | ED200 [1] | ED50 [2] | phenomenon of "group toxicity" (known psychostimulant compounds) [4] | other results |
| --- | --- | --- | --- | --- |
| Cc1cccc(NC(=O)[N-]c2c[n+](C(C)Cc3ccccc3)no2)c1 (racemic) [X is NH--C6 H4 --CH3 --meta] | 32.3 µmol/kg | 39.9 µmol/kg |  |  |
| CC(Cc1ccccc1)[n+]1cc([N-]C(=O)Nc2ccccc2)on1 (racemic) [dl-N-phenylcarbamoyl-3-(α-methyl-β-phenylethyl) sydnonimine, reference compound] | 72.6 µmol/kg | 107 µmol/kg |  | psychostimulant activity (known compound) [3]: possesses a psychostimulant activity |
| CC(Cc1ccccc1)[n+]1cc([N-]C(=O)Nc2ccc(Cl)cc2)on1 (racemic) [Example 4, dl-N-para-chlorophenyl carbamoyl-3-(α-methyl-β-phenylethyl) sydnonimine] | 18.2 µmol/kg | 20 µmol/kg |  |  |
| CC(N)Cc1ccccc1 (centres unmarked) [amphetamine] |  |  | characteristic |  |
| C[C@H](Cc1ccccc1)[n+]1cc([N-]C(=O)Nc2ccccc2)on1 [Example 3, l-3-(α-methyl-β-phenylethyl)-N-phenylcarbamoylsydnonimine] |  |  |  | duration for which maximum locomotory activity is maintained ([1]; dose of 40 mcM/kg): 1 to 1.5 h; solubility in acetone ([5]; acetone): soluble; solubility in chloroform ([5]; chloroform): soluble; solubility in fats ([5]; fats): soluble; solubility in water ([5]; water): substantially insoluble in water |
| C[C@H](N)Cc1ccccc1 [dextramphetamine] |  |  | characteristic |  |
